PubChem BioAssay (NCI)
Values joined by “and” are separate entries in the source; they are usually repeats but may differ in a detail not shown here. Equal values may be shown once.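 Growth conditions: 96-well plates. Treatment: test compound, 48 hours, 5 concentrations. Analysis: linear interpolation between bracketing concentrations; unreached endpoints set to highest concentration. Here, GI50 denotes the concentration required for 50% inhibition of growth. TGI: total growth inhibition.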

Key:
Test in all cases: inhibition of tumour cell growth, NCI panel, 48 h
[1] = test system: SF-268 CNS
[2] = test system: RPMI-8226 leukemia
[3] = test system: PC-3 prostate
[4] = test system: TK-10 renal
[5] = test system: SNB-19 CNS
[6] = test system: IGROV1 ovarian
[7] = test system: SK-MEL-2 melanoma
[8] = test system: NCI-H460 lung
[9] = test system: CAKI-1 renal
[10] = test system: SK-MEL-28 melanoma

SMILES	GI50 [1]	TGI [1]	GI50 [2]	TGI [2]	GI50 [3]	TGI [3]	GI50 [4]	TGI [4]	GI50 [5]	TGI [5]	GI50 [6]	TGI [6]	GI50 [7]	TGI [7]	GI50 [8]	TGI [8]	GI50 [9]	TGI [9]	GI50 [10]	TGI [10]
C=CC(=O)Nc1cccc(Nc2nc(Nc3ccc(N4CCN(C(C)=O)CC4)cc3OC)ncc2C(F)(F)F)c1	5.29 µM and 3.19 µM	> 10 µM and 26.2 µM	4.17 µM and 3.43 µM	> 10 µM and 25.6 µM	9.75 µM and 4.73 µM	> 10 µM and 27.7 µM	0.32 µM and 0.441 µM	2.16 µM and 4.03 µM	5.83 µM	> 100 µM	1.94 µM and 2.71 µM	9.84 µM and 13.6 µM	2.04 µM and 2.23 µM	6.83 µM and 10.8 µM	3.87 µM and 3.24 µM	> 100 µM	2.32 µM and 1.64 µM	> 10 µM and 6.01 µM	8.43 µM	> 93.1 µM
CCC(=O)Oc1ccc(/C=N/NC(N)=S)nc1	3.46 µM	> 100 µM	28.5 µM	> 100 µM	6.83 µM	> 100 µM	49 µM	> 100 µM	14.2 µM	> 100 µM	9.94 µM	> 100 µM	33 µM	> 100 µM	4.04 µM	46.6 µM	4.97 µM	> 100 µM	34.3 µM	> 100 µM
CCCNC(=O)Nc1ccc2c(c1)Cc1cc(N(CCCl)CCCl)ccc1-2		> 100 µM		> 100 µM		> 100 µM		> 100 µM		94.8 µM		50.6 µM		62.9 µM		> 100 µM		> 100 µM		35.7 µM
C[C@H](CCCOS(C)(=O)=O)[C@H]1CC[C@H]2[C@@H]3CC[C@@H]4C[C@H](OS(C)(=O)=O)CC[C@]4(C)[C@H]3CC[C@]12C	590 µM		69.9 µM	1260 µM	852 µM		607 µM		929 µM	> 2500 µM	518 µM	1450 µM	989 µM	> 2500 µM	597 µM	2080 µM	954 µM		1060 µM	> 2500 µM
O=C1CC2OCC=C3CN4CCC56c7ccccc7N1C5C2C3CC46 (stereo not drawn) (tested in a mixture with another compound)	> 50 µg/mL	> 50 µg/mL	> 50 µg/mL	> 50 µg/mL	> 50 µg/mL	> 50 µg/mL	> 50 µg/mL	> 50 µg/mL	> 50 µg/mL	> 50 µg/mL	> 50 µg/mL	> 50 µg/mL	> 50 µg/mL	> 50 µg/mL	> 50 µg/mL	> 50 µg/mL	> 50 µg/mL	> 50 µg/mL	> 50 µg/mL	> 50 µg/mL
O=C(O)CSc1nnc2c3ccccc3c3ccccc3c2n1		> 100 µM		99.4 µM		> 100 µM		> 100 µM		> 100 µM		> 100 µM		> 100 µM		> 100 µM		> 100 µM		> 100 µM
NCCNc1ncnc2ccc(Cl)cc12		> 100 µM		> 100 µM		> 100 µM		> 100 µM		> 100 µM		> 100 µM		> 100 µM		> 100 µM		> 100 µM		> 100 µM
COc1cc2c3c(n(CCCN4CCN(CCO)CC4)c(=O)c2cc1OC)-c1cc2c(cc1C3=O)OCO2	5.23 µM	> 100 µM	0.559 µM	3.91 µM	13.2 µM	35.4 µM	15.5 µM	37 µM	14.3 µM	> 65.7 µM	> 34.2 µM	> 50.9 µM	> 100 µM	> 100 µM	0.972 µM	18.4 µM	6.53 µM	42.2 µM	17.5 µM	32.1 µM
Nc1ncnc2c1ncn2C1OC(C(=O)OCCO)C(O)C1O (stereo not drawn)		> 100 µM		> 100 µM		> 100 µM		> 100 µM		> 100 µM		> 100 µM		> 100 µM		> 100 µM		> 100 µM		> 100 µM
CC1(C)N=C(N)N=C(N)N1c1ccc(CCC(=O)Nc2cccc(S(=O)(=O)F)c2)cc1	4.74 µM	> 100 µM	36.4 µM	> 100 µM	0.597 µM	> 100 µM	5.57 µM	> 100 µM	7.37 µM	> 100 µM	1.09 µM	5 µM	10.8 µM	> 100 µM	3.04 µM	> 100 µM	> 100 µM	> 100 µM	81.1 µM	> 100 µM
CCN1C(=O)N(CC)C2C1NN=c1s/c(=C\c3cnc(C)n3C)c(=O)n12 (stereo not drawn)	4.1 µM	> 100 µM	3.47 µM	> 100 µM	2.07 µM	> 100 µM	7.19 µM	> 100 µM	3.94 µM	> 100 µM	4.37 µM	> 100 µM	1.85 µM	11.3 µM	2.67 µM	> 100 µM	0.7 µM	> 100 µM	5.2 µM	> 100 µM
COc1ccc(-c2cc(=O)c3cccnc3[nH]2)cc1		> 100 µM		> 100 µM	31.7 µM	> 100 µM		> 100 µM		> 100 µM		> 100 µM		> 100 µM	26.4 µM	91.4 µM		> 100 µM		> 100 µM
